Assay results as given in ChEMBL document CHEMBL1124952, “Growth inhibition and induction of cellular differentiation of human myeloid leukemia cells in culture by carbamoyl congeners of ribavirin” (1990).

Legend:
Assay type in all cases: functional
[1] = system: HL-60; assay: Evaluated for cell growth inhibition and induction of cellular differentiation of human myeloid leukemia cell line (HL-60); settings: read-out: ID50 (the source's name)
[2] = system: L1210; assay: Evaluated for cell growth inhibition and induction of cellular differentiation of Murine leukemia cell line (L-1210); settings: Mus musculus, read-out: ID50 (the source's name)
[3] = system: K562; assay: Evaluated for cell growth inhibition and induction of cellular differentiation of human myeloid leukemia cell line (K562); settings: read-out: ID50 (the source's name)
[4] = Evaluated for cell growth inhibition and induction of cellular differentiation of human B-lymphoblast cell line (WI-L2); settings: WIL2, read-out: ID50 (the source's name)

NC(=O)c1nn(C2O[C@H](CO)[C@@H](O)[C@H]2O)c(N)c1C(N)=O (stereo not given in full)
IC50 [1]: 39 µM
IC50 [2]: 44 µM
IC50 [3]: 51 µM
IC50 [4]: 46 µM

NC(=O)c1cn(C2O[C@H](CO)[C@@H](O)[C@H]2O)cc1C(N)=O (stereo not given in full)
IC50 [1]: 36 µM
IC50 [2]: 48 µM
IC50 [3]: 32 µM
IC50 [4]: 33 µM

N=C(NO)c1nn(C2O[C@H](CO)[C@@H](O)[C@H]2O)c(N)c1/C(N)=N/O (stereo not given in full)
IC50 [1]: > 200 µM
IC50 [2]: > 200 µM
IC50 [3]: > 200 µM
IC50 [4]: > 200 µM

NC(=O)c1ncn([C@@H]2O[C@H](CO)[C@@H](O)[C@H]2O)n1 [RIBAVIRIN]
IC50 [1]: 67 µM
IC50 [2]: 36 µM
IC50 [3]: 50 µM
IC50 [4]: 42 µM

NC(=O)c1nn([C@@H]2O[C@H](CO)[C@@H](O)[C@H]2O)nc1C(N)=O
IC50 [1]: 32 µM
IC50 [2]: > 100 µM
IC50 [3]: 26 µM
IC50 [4]: 41 µM

N=C(S)c1nn(C2O[C@H](CO)[C@@H](O)[C@H]2O)nc1C(N)=S (stereo not given in full)
IC50 [1]: > 200 µM
IC50 [2]: > 200 µM
IC50 [3]: > 200 µM
IC50 [4]: > 200 µM

NC(=O)c1cn(C2O[C@H](CO)[C@@H](O)[C@H]2O)nc1C(N)=O (stereo not given in full)
IC50 [1]: 58 µM
IC50 [2]: > 100 µM
IC50 [3]: 160 µM
IC50 [4]: 100 µM

N=C(NO)c1nn(C2O[C@H](CO)[C@@H](O)[C@H]2O)nc1/C(N)=N/O (stereo not given in full)
IC50 [1]: > 200 µM
IC50 [2]: > 200 µM
IC50 [3]: > 200 µM
IC50 [4]: > 200 µM

N=C(S)c1nn(C2O[C@H](CO)[C@@H](O)[C@H]2O)c(N)c1C(N)=S (stereo not given in full)
IC50 [1]: 200 µM
IC50 [2]: > 200 µM
IC50 [3]: > 200 µM
IC50 [4]: 154 µM

N=C(N)c1nn(C2OC(CO)[C@H](O)C2O)c(N)c1C(=N)N (stereo not given in full)
IC50 [1]: 130 µM
IC50 [2]: 200 µM
IC50 [3]: > 200 µM
IC50 [4]: 179 µM
